The source made the active and inactive calls. For most assays here, no stated cut-off is given here; in the data, actives have a measured EC50 and inactives only a lower limit.
Test: fluconazole-exposed Candida albicans growth modulators – fluorescence, retest, confirmation (AID 2467)
Format: functional, cell-based

SMILES | EC50
CCOc1ccccc1OCCN1CCC(Cc2ccccc2)CC1 | > 38 µM (not active)

Test: NIH-3T3 fibroblast cytotoxicity, dose response, cytotoxicity control, cell-based, fluorescence, Alamar Blue, secondary assay (AID 2327);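 further: NIH-3T3 mouse fibroblasts cultured with fluconazole at 8 µg/mL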
Format: functional

SMILES | EC50
CCOc1ccccc1OCCN1CCC(Cc2ccccc2)CC1 | > 150 µM (inactive)

Test: luciferase reporter signal suppression in cells – H4 neuroglioma cells, luminescence, dose response (AID 1990)
Format: functional, cell-based

SMILES | EC50
O=C1c2ccccc2C(=O)N1CCCCN(C(=O)c1cc2ccccc2oc1=O)c1ccc(F)cc1F | > 120 µM (not active)
c1ccc2c(c1)CSc1ccccc1N2 | > 120 µM (not active)
CC(C)OC(=O)/C(C#N)=C/c1cn(Cc2ccccc2)c2ccccc12 | 11.5 µM (active)
CCc1cc(=O)oc2cc(OC(C)C(=O)NCC(O)c3ccccc3)c(Cl)cc12 (stereo not drawn) | > 120 µM (not active)
CSc1ccccc1NC(=O)c1ccc(N2CC3CC(C2)c2cccc(=O)n2C3)c(NC(=O)c2cccnc2)c1 (stereo not drawn) | > 120 µM (not active)

Test: cells
Format: functional

SMILES | IC50
Cc1cc(C)n2nc(S(=O)(=O)Nc3c(Cl)cccc3Cl)nc2n1 | 5.34 µM (active)
CCC(=O)c1ccc(OCC(=O)OCC(=O)N2CCc3ccccc3C2)cc1 | 17.3 µM (active)
CCCn1nnc(NC(=O)COc2ccc(CC)cc2)n1 | 27.6 µM (active)
O=C(Nc1nnc(C2=COCCO2)o1)c1ccc(F)cc1 | 6.55 µM (active)

Test: alpha-synuclein stem-loop luciferase translation blockers – H4 neuroglioma cells, luminescence, confirmation (AID 1988)
Format: functional, cell-based

SMILES | EC50
O=C1c2ccccc2C(=O)N1CCCCN(C(=O)c1cc2ccccc2oc1=O)c1ccc(F)cc1F | > 120 µM (not active)
c1ccc2c(c1)CSc1ccccc1N2 | > 120 µM (not active)
CC(C)OC(=O)/C(C#N)=C/c1cn(Cc2ccccc2)c2ccccc12 | 7.08 µM (active)
CCc1cc(=O)oc2cc(OC(C)C(=O)NCC(O)c3ccccc3)c(Cl)cc12 (stereo not drawn) | > 120 µM (not active)
CSc1ccccc1NC(=O)c1ccc(N2CC3CC(C2)c2cccc(=O)n2C3)c(NC(=O)c2cccnc2)c1 (stereo not drawn) | > 120 µM (not active)

Test: P. falciparum Dd2 growth inhibitors, dose response, SYBR Green, cherry-picked samples (AID 1159567)
Format: functional, cell-based

SMILES | AC50
COc1ccc2c3c(n(C)c2c1)[C@@H](CO)N(C(=O)Nc1ccc(F)cc1)CC31CN(C(=O)c2ccccc2F)C1 | 4.35 µM (active)
COc1ccc(-c2ccc([C@@H]3[C@@H](CO)N4CCCCN(C(=O)c5ccc6c(c5)OCO6)C[C@@H]34)cc2)cc1 | 5.97 µM (active)
COCC(=O)N1CC2(C1)CN(Cc1ccccc1F)[C@@H](CO)c1[nH]c3cc(OC)ccc3c12 | 6.55 µM (active)
COc1ccc(NC(=O)N(C)C[C@@H]2Oc3cc(-c4ccc(C)cc4)ccc3S(=O)(=O)N([C@@H](C)CO)C[C@H]2C)cc1 | 5.06 µM (active)
CO[C@@H]1CN(C)C(=O)c2cc(NC(=O)c3ccc(Oc4ccccc4)cc3)ccc2OC[C@H](C)NC[C@@H]1C | 5.99 µM (active)
CO[C@H]1CN(C)C(=O)c2cc(NC(=O)c3ccccc3F)ccc2OC[C@H](C)N(C)C[C@H]1C | > 39 µM (inactive)
CCS(=O)(=O)N1CCCCN2[C@H](CO)[C@H](c3ccc(-c4cccc(C#N)c4)cc3)[C@@H]2C1 | 12.5 µM (active)

Test: Luminescence Cell-Based Dose Response HTS to Identify Inhibitors of 5'UTR Stem-Loop Driven Prion Protein mRNA Translation in H4 Neuroglioblastoma Cells. [Related pubchem assays: 1827 (Project Summary), 1813 (Primary HTS)]
Format: functional

SMILES | EC50
O=C1c2ccccc2C(=O)N1CCCCN(C(=O)c1cc2ccccc2oc1=O)c1ccc(F)cc1F | > 120 µM (not active)
c1ccc2c(c1)CSc1ccccc1N2 | > 120 µM (not active)
CC(C)OC(=O)/C(C#N)=C/c1cn(Cc2ccccc2)c2ccccc12 | 13.4 µM (active)
CCc1cc(=O)oc2cc(OC(C)C(=O)NCC(O)c3ccccc3)c(Cl)cc12 (stereo not drawn) | > 120 µM (not active)
CSc1ccccc1NC(=O)c1ccc(N2CC3CC(C2)c2cccc(=O)n2C3)c(NC(=O)c2cccnc2)c1 (stereo not drawn) | > 120 µM (not active)

From ChEMBL document CHEMBL1201862, “PubChem BioAssay data set” (2004)
